Assay results reported in patent US20220162167A1, “SUBSTITUTED BICYCLIC AND TETRACYCLIC QUINONES AND USE THEREOF AS ANTI-CANCER AGENTS” (THE REGENTS OF THE UNIVERSITY OF MICHIGAN, priority 2019, published 2022).

Columns and labels:
Assay type in all cases: cell-based
CCRF-CEM = experiment: NCI60 growth inhibition, CCRF-CEM; settings: Leukemia
Procedure, shortened: (§1)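 Selected compounds were submitted to the NCI and profiled in its 60-line tumour cell panel. Inhibition of cell growth was scored per line.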

HL-60(TB) = experiment: NCI60 growth inhibition, HL-60(TB); settings: Leukemia
Procedure, shortened: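 Compounds were screened across the NCI60 panel of 60 human cancer cell lines by the National Cancer Institute's Developmental Therapeutics Program, with growth inhibition as the read-out.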

K-562 = experiment: NCI60 growth inhibition, K-562; settings: Leukemia
Procedure, shortened: as §1

MOLT-4 = experiment: NCI60 growth inhibition, MOLT-4; settings: Leukemia
Procedure, shortened: as §1

RPMI-8226 = experiment: NCI60 growth inhibition, RPMI-8226; settings: Leukemia
Procedure, shortened: as §1

SR = experiment: NCI60 growth inhibition, SR; settings: Leukemia
Procedure, shortened: as §1

A549/ATCC = experiment: NCI60 growth inhibition, A549/ATCC; settings: Non-Small Cell Lung Cancer
Procedure, shortened: as §1

EKVX = experiment: NCI60 growth inhibition, EKVX; settings: Non-Small Cell Lung Cancer
Procedure, shortened: as §1

HOP-62 = experiment: NCI60 growth inhibition, HOP-62; settings: Non-Small Cell Lung Cancer; further: test concentration or dose not given here
Procedure, shortened: as §1

HOP-92 = experiment: NCI60 growth inhibition, HOP-92; settings: Non-Small Cell Lung Cancer
Procedure, shortened: as §1

NCI-H226 = experiment: NCI60 growth inhibition, NCI-H226; settings: Non-Small Cell Lung Cancer; further: test concentration or dose not given here
Procedure, shortened: as §1

NCI-H23 = experiment: NCI60 growth inhibition, NCI-H23; settings: Non-Small Cell Lung Cancer
Procedure, shortened: as §1

NCI-H322M = experiment: NCI60 growth inhibition, NCI-H322M; settings: Non-Small Cell Lung Cancer
Procedure, shortened: as §1

NCI-H460 = experiment: NCI60 growth inhibition, NCI-H460; settings: Non-Small Cell Lung Cancer
Procedure, shortened: as §1

NCI-H522 = experiment: NCI60 growth inhibition, NCI-H522; settings: Non-Small Cell Lung Cancer
Procedure, shortened: as §1

COLO 205 = experiment: NCI60 growth inhibition, COLO 205; settings: Colon Cancer
Procedure, shortened: as §1

HCC-2998 = experiment: NCI60 growth inhibition, HCC-2998; settings: Colon Cancer
Procedure, shortened: as §1

HCT-116 = experiment: NCI60 growth inhibition, HCT-116; settings: Colon Cancer
Procedure, shortened: as §1

HCT-15 = experiment: NCI60 growth inhibition, HCT-15; settings: Colon Cancer; further: test concentration or dose not given here
Procedure, shortened: as §1

HT29 = experiment: NCI60 growth inhibition, HT29; settings: Colon Cancer
Procedure, shortened: as §1

KM12 = experiment: NCI60 growth inhibition, KM12; settings: Colon Cancer; further: test concentration or dose not given here
Procedure, shortened: as §1

SW-620 = experiment: NCI60 growth inhibition, SW-620; settings: Colon Cancer; further: test concentration or dose not given here
Procedure, shortened: as §1

SF-268 = experiment: NCI60 growth inhibition, SF-268; settings: CNS Cancer; further: test concentration or dose not given here
Procedure, shortened: as §1

SF-295 = experiment: NCI60 growth inhibition, SF-295; settings: CNS Cancer; further: test concentration or dose not given here
Procedure, shortened: as §1

SF-539 = experiment: NCI60 growth inhibition, SF-539; settings: CNS Cancer
Procedure, shortened: as §1

SNB-19 = experiment: NCI60 growth inhibition, SNB-19; settings: CNS Cancer; further: test concentration or dose not given here
Procedure, shortened: as §1

SNB-75 = experiment: NCI60 growth inhibition, SNB-75; settings: CNS Cancer; further: test concentration or dose not given here
Procedure, shortened: as §1

U251 = experiment: NCI60 growth inhibition, U251; settings: CNS Cancer
Procedure, shortened: as §1

LOX IMVI = experiment: NCI60 growth inhibition, LOX IMVI; settings: Melanoma
Procedure, shortened: as §1

MALME-3M = experiment: NCI60 growth inhibition, MALME-3M; settings: Melanoma
Procedure, shortened: as §1

M14 = experiment: NCI60 growth inhibition, M14; settings: Melanoma
Procedure, shortened: as §1

MDA-MB-435 = experiment: NCI60 growth inhibition, MDA-MB-435; settings: Melanoma
Procedure, shortened: as §1

SK-MEL-2 = experiment: NCI60 growth inhibition, SK-MEL-2; settings: Melanoma; further: test concentration or dose not given here
Procedure, shortened: as §1

SK-MEL-28 = experiment: NCI60 growth inhibition, SK-MEL-28; settings: Melanoma
Procedure, shortened: as §1

SK-MEL-5 = experiment: NCI60 growth inhibition, SK-MEL-5; settings: Melanoma
Procedure, shortened: as §1

UACC-257 = experiment: NCI60 growth inhibition, UACC-257; settings: Melanoma; further: test concentration or dose not given here
Procedure, shortened: as §1

UACC-62 = experiment: NCI60 growth inhibition, UACC-62; settings: Melanoma; further: test concentration or dose not given here
Procedure, shortened: as §1

IGROV1 = experiment: NCI60 growth inhibition, IGROV1; settings: Ovarian Cancer
Procedure, shortened: as §1

OVCAR-3 = experiment: NCI60 growth inhibition, OVCAR-3; settings: Ovarian Cancer
Procedure, shortened: as §1

OVCAR-4 = experiment: NCI60 growth inhibition, OVCAR-4; settings: Ovarian Cancer; further: test concentration or dose not given here
Procedure, shortened: as §1

OVCAR-5 = experiment: NCI60 growth inhibition, OVCAR-5; settings: Ovarian Cancer
Procedure, shortened: as §1

NCI/ADR-RES = experiment: NCI60 growth inhibition, NCI/ADR-RES; settings: Ovarian Cancer
Procedure, shortened: as §1

SK-OV-3 = experiment: NCI60 growth inhibition, SK-OV-3; settings: Ovarian Cancer
Procedure, shortened: as §1

786-0 = experiment: NCI60 growth inhibition, 786-0; settings: Renal Cancer
Procedure, shortened: as §1

A498 = experiment: NCI60 growth inhibition, A498; settings: Renal Cancer; further: test concentration or dose not given here
Procedure, shortened: as §1

ACHN = experiment: NCI60 growth inhibition, ACHN; settings: Renal Cancer
Procedure, shortened: as §1

CAKI-1 = experiment: NCI60 growth inhibition, CAKI-1; settings: Renal Cancer; further: test concentration or dose not given here
Procedure, shortened: as §1

RXF 393 = experiment: NCI60 growth inhibition, RXF 393; settings: Renal Cancer
Protocol: (§2) Representative compounds were tested in 60 cell lines (NCI60) at the National Cancer Institute, Developmental Therapeutics Program.
(§3) Representative compounds were tested in a panel of 60 cancer cells (NCI 60) at the National Cancer Institute. Growth inhibition are shown in table 2, table 3, table 4, table 5, and FIG. 1, FIG. 2, FIG. 3, FIG. 4, FIG. 5.

SN12C = experiment: NCI60 growth inhibition, SN12C; settings: Renal Cancer
Procedure, shortened: as §1

TK-10 = experiment: NCI60 growth inhibition, TK-10; settings: Renal Cancer
Procedure, shortened: as §1

UO-31 = experiment: NCI60 growth inhibition, UO-31; settings: Renal Cancer
Procedure, shortened: as §1

PC-3 = experiment: NCI60 growth inhibition, PC-3; settings: Prostate Cancer
Procedure, shortened: as §1

DU-145 = experiment: NCI60 growth inhibition, DU-145; settings: Prostate Cancer
Procedure, shortened: as §1

MCF7 = experiment: NCI60 growth inhibition, MCF7; settings: Breast Cancer
Procedure, shortened: as §1

MDA-MB-231/ATCC = experiment: NCI60 growth inhibition, MDA-MB-231/ATCC; settings: Breast Cancer
Procedure, shortened: as §1

HS 578T = experiment: NCI60 growth inhibition, HS 578T; settings: Breast Cancer
Procedure, shortened: as §1

BT-549 = experiment: NCI60 growth inhibition, BT-549; settings: Breast Cancer
Protocol: as §2, §3

T-47D = experiment: NCI60 growth inhibition, T-47D; settings: Breast Cancer
Procedure, shortened: as §1

MDA-MB-468 = experiment: NCI60 growth inhibition, MDA-MB-468; settings: Breast Cancer; further: test concentration or dose not given here
Procedure, shortened: as §1

CN1CCN(c2ccc3nc4c(nc3c2C(F)(F)F)C(=O)c2ncccc2C4=O)CC1 [Compound 50, 9-(4-methylpiperazin-1-yl)-10-(trifluoromethyl)pyrido[2,3-b]phenazine-5,12-dione]
Growth inhibition (% control) GIPRCNT (CCRF-CEM): 5.713 % control | Growth inhibition (% control) GIPRCNT (HL-60(TB)): −50.3957 % control | Growth inhibition (% control) GIPRCNT (K-562): −6.717 % control | Growth inhibition (% control) GIPRCNT (MOLT-4): −36.4229 % control | Growth inhibition (% control) GIPRCNT (RPMI-8226): 27.57 % control | Growth inhibition (% control) GIPRCNT (SR): −27.1607 % control | Growth inhibition (% control) GIPRCNT (A549/ATCC): −36.1751 % control | Growth inhibition (% control) GIPRCNT (EKVX): 5.133 % control | Growth inhibition (% control) GIPRCNT (HOP-62): −63.3298 % control | Growth inhibition (% control) GIPRCNT (HOP-92): 27.5 % control | Growth inhibition (% control) GIPRCNT (NCI-H226): −78.8735 % control | Growth inhibition (% control) GIPRCNT (NCI-H23): −39.656 % control | Growth inhibition (% control) GIPRCNT (NCI-H322M): 36.63 % control | Growth inhibition (% control) GIPRCNT (NCI-H460): −56.5637 % control | Growth inhibition (% control) GIPRCNT (NCI-H522): −67.5222 % control | Growth inhibition (% control) GIPRCNT (COLO 205): −94.9856 % control | Growth inhibition (% control) GIPRCNT (HCC-2998): −26.9174 % control | Growth inhibition (% control) GIPRCNT (HCT-116): 0.9838 % control | Growth inhibition (% control) GIPRCNT (HCT-15): −47.4718 % control | Growth inhibition (% control) GIPRCNT (HT29): −55.5144 % control | Growth inhibition (% control) GIPRCNT (KM12): 13 % control | Growth inhibition (% control) GIPRCNT (SW-620): 4.709 % control | Growth inhibition (% control) GIPRCNT (SF-268): 1.957 % control | Growth inhibition (% control) GIPRCNT (SF-295): −61.5894 % control | Growth inhibition (% control) GIPRCNT (SF-539): −52.4375 % control | Growth inhibition (% control) GIPRCNT (SNB-19): 17.8598 % control | Growth inhibition (% control) GIPRCNT (SNB-75): 5.296 % control | Growth inhibition (% control) GIPRCNT (U251): 0.9108 % control | Growth inhibition (% control) GIPRCNT (LOX IMVI): −50.1492 % control | Growth inhibition (% control) GIPRCNT (MALME-3M): −99.1953 % control | Growth inhibition (% control) GIPRCNT (M14): −89.6374 % control | Growth inhibition (% control) GIPRCNT (MDA-MB-435): −91.762 % control | Growth inhibition (% control) GIPRCNT (SK-MEL-2): −34.5495 % control | Growth inhibition (% control) GIPRCNT (SK-MEL-28): 5.495 % control | Growth inhibition (% control) GIPRCNT (SK-MEL-5): −99.7024 % control | Growth inhibition (% control) GIPRCNT (UACC-257): −82.2969 % control | Growth inhibition (% control) GIPRCNT (UACC-62): −82.4675 % control | Growth inhibition (% control) GIPRCNT (IGROV1): −32.57 % control | Growth inhibition (% control) GIPRCNT (OVCAR-3): −27.9399 % control | Growth inhibition (% control) GIPRCNT (OVCAR-4): −91.1398 % control | Growth inhibition (% control) GIPRCNT (OVCAR-5): −90.4043 % control | Growth inhibition (% control) GIPRCNT (NCI/ADR-RES): 10.14 % control | Growth inhibition (% control) GIPRCNT (SK-OV-3): 29.68 % control | Growth inhibition (% control) GIPRCNT (786-0): 36.69 % control | Growth inhibition (% control) GIPRCNT (A498): −21.1398 % control | Growth inhibition (% control) GIPRCNT (ACHN): −44.1558 % control | Growth inhibition (% control) GIPRCNT (CAKI-1): 33.14 % control | Growth inhibition (% control) GIPRCNT (RXF 393): 38.36 % control | Growth inhibition (% control) GIPRCNT (SN12C): −95.418 % control | Growth inhibition (% control) GIPRCNT (TK-10): 80.29 % control | Growth inhibition (% control) GIPRCNT (UO-31): −19.0631 % control | Growth inhibition (% control) GIPRCNT (PC-3): 8.007 % control | Growth inhibition (% control) GIPRCNT (DU-145): −85.7143 % control | Growth inhibition (% control) GIPRCNT (MCF7): −57.016 % control | Growth inhibition (% control) GIPRCNT (MDA-MB-231/ATCC): −5.992 % control | Growth inhibition (% control) GIPRCNT (HS 578T): −15.9764 % control | Growth inhibition (% control) GIPRCNT (BT-549): −97.0139 % control | Growth inhibition (% control) GIPRCNT (T-47D): −28.3961 % control | Growth inhibition (% control) GIPRCNT (MDA-MB-468): −62.4106 % control
